We go through 13 compounds from ChEMBL document CHEMBL1201862, “PubChem BioAssay data set” (2004).

Activity calls are given as the source filed them. Some results are limits rather than exact numbers.

In assay [1] the target is T1, Microphthalmia-associated transcription factor (Homo sapiens, UniProt O75030).
T1 sequence (O75030 whole entry): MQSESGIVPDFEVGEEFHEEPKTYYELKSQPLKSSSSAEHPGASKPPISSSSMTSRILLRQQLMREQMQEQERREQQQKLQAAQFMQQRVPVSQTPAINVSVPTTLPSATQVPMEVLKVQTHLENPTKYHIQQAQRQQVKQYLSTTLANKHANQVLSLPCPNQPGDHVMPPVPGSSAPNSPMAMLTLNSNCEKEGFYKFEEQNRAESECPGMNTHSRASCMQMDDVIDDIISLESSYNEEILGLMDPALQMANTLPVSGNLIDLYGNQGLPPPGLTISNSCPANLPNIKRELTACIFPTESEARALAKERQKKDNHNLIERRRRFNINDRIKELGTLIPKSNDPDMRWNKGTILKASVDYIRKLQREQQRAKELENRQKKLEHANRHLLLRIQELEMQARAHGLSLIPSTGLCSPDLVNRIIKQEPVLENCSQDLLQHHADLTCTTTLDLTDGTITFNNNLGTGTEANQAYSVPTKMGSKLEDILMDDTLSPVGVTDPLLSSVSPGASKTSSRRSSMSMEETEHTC
Nature of the assay: TRPM1 promoter luciferase signal decrease, dose response, MITF inhibitor project, cell-based, SK-MEL-5, cherry-picked, set 3 (AID 493073).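 Note: SK-MEL-5 melanoma cells with luciferase driven by the MITF target TRPM1 promoter.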 The class given is functional.

For another assay, the target named is SUMO-activating enzyme (Homo sapiens, UniProt Q9UBT2). Nature of the assay: SUMOylation inhibitor hit validation, confirmation, SUMOylation inhibitor project, biochemical, AlphaScreen (AID 2018). The format is functional. For orientation: In Alpha technology, singlet oxygen from a donor bead excites a nearby acceptor bead.
Sequence of SUMO-activating enzyme (Q9UBE0 whole entry): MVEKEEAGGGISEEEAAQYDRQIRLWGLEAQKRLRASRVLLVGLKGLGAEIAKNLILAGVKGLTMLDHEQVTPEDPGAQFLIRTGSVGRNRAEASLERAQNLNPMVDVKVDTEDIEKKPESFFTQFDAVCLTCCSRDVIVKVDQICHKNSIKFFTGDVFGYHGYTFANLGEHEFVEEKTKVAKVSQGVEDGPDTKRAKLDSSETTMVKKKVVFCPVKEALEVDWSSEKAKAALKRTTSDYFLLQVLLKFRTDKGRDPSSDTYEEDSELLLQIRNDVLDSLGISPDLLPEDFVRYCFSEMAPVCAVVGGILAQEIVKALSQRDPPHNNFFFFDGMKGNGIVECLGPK
Sequence of SUMO-activating enzyme (Q9UBT2 whole entry): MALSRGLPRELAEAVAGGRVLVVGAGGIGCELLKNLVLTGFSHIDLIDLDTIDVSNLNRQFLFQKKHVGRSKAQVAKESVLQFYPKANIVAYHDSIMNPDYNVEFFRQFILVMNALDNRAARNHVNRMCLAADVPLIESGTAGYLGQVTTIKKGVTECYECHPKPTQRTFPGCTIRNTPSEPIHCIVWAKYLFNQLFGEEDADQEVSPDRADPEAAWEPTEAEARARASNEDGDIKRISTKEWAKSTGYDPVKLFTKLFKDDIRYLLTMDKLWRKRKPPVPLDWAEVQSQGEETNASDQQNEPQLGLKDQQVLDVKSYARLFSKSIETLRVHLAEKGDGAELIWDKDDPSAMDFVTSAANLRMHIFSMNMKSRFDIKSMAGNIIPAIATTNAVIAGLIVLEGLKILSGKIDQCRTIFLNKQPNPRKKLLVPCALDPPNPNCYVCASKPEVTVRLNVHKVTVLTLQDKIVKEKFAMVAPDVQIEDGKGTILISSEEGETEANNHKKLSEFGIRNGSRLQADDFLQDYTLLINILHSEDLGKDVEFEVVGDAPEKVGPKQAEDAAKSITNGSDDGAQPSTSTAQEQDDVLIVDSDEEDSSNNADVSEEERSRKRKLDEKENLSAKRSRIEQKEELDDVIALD
The subject of a further assay is Escherichia coli. Nature of the assay: microbe, parasite or virus in culture.
Assay [2] can be described thus: THP-1 cell cytotoxicity, dose response, cytotoxicity control for non-replicating M. tuberculosis project (AID 489025). The format is functional.
In assay [3] the target is T2, Ubiquitin-conjugating enzyme E2 N (Homo sapiens, UniProt P61088).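 Note: Dose-response confirmation in a TR-FRET assay detecting UBC13-driven polyubiquitin chain formation, inhibition measured.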
T2 sequence (P61088 whole entry): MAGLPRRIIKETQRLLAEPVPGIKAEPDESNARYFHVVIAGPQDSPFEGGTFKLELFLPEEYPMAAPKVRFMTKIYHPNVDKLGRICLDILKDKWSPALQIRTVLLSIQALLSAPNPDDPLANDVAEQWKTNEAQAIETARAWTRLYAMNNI
The class given is functional.

Assay [4] in a line: HepG2 cell cytotoxicity, dose response, cytotoxicity control for non-replicating M. tuberculosis project (AID 489018). The format is functional. Particulars: Mycobacterium tuberculosis.
The nature of assay [5]: Luminescence Cell-Based Dose Retest to Confirm Inhibitors of Cancer Stem Cells. [Related pubchem assays (depositor defined):AID2717, AID2721]. The class given is functional. Particulars: Homo sapiens.
The nature of a further assay: cells. The class given is functional.
Assay [6] can be described thus: Vero E6 cell cytotoxicity, dose response, cytotoxicity control for non-replicating M. tuberculosis project, secondary assay (AID 492998). Particulars: Vero C1008. The class given is functional, VeroE6.
Assay [7] concerns Vero. Nature of the assay: cells. The format is functional, cell-based. Particulars: Chlorocebus sabaeus.
Assay [8] is described as follows: Luminescence Cell-Based Dose Response HTS to Identify Activators of Luciferase Translation or Activity in H4 […] Cells. [Related pubchem assays: 1829 (Project Summary), 1814 (Primary HTS)]. The format is functional.
The test system of another assay is H4. Nature of the assay: Luminescence Cell-Based Dose Response HTS to Identify Activators of 5'UTR Stem-Loop Driven Prion Protein mRNA Translation in H4 Neuroglioblastoma Cells. [Related pubchem assays: 1829 (Project Summary), 1814 (Primary HTS)]. The format is functional. The note with it: Homo sapiens.
Assay [9] has as its system Vero. Nature of the assay: cells. Particulars: Chlorocebus sabaeus. The class given is functional.
Assay [10] can be described thus: HEp-2 cell cytotoxicity, dose response, cytotoxicity control for RSV inhibitor project, HTS (AID 2410). The format is functional. The note with it: human respiratory syncytial virus.
For assay [11], the target named is T3, Nucleotide-binding oligomerization domain-containing protein 1 (Homo sapiens, UniProt Q9Y239).
T3 sequence (Q9Y239 whole entry): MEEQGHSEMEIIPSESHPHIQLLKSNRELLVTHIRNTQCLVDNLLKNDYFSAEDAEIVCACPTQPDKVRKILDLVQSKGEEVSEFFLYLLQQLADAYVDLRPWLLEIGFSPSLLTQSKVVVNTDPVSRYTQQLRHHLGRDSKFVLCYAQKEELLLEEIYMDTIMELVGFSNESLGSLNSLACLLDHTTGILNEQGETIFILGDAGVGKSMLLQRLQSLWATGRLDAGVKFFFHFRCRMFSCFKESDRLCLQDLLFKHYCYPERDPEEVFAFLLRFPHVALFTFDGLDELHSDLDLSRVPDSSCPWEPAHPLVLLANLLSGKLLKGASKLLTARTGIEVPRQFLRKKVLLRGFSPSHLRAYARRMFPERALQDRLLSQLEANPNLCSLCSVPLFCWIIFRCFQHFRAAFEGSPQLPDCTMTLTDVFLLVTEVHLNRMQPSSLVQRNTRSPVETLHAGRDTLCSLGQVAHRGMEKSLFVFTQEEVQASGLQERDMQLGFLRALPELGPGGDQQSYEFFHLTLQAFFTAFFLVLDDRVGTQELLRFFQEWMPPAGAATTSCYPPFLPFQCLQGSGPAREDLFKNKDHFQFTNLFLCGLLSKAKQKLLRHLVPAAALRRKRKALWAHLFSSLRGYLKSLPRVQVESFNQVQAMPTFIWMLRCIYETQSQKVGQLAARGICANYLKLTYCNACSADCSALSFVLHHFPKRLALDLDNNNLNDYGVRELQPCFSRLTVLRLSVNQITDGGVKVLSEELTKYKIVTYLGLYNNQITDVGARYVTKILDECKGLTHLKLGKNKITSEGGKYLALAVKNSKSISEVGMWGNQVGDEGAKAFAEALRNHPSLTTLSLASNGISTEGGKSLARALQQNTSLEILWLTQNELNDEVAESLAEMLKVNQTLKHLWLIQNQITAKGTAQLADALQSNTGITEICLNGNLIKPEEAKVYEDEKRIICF
Nature of the assay: NOD1 signaling inhibitors, SAR follow-up, revised (AID 2333). The class given is functional.

Another assay deals with HEK293. Nature of the assay: cells. The note with it: Homo sapiens.
In a further assay the target is Tumor necrosis factor (Homo sapiens, UniProt P01375). Nature of the assay: TNFa-triggered NF-kB activation inhibitors, SAR follow-up, cell-based, revised (AID 2337). The format is functional.
Sequence of Tumor necrosis factor (P01375 whole entry): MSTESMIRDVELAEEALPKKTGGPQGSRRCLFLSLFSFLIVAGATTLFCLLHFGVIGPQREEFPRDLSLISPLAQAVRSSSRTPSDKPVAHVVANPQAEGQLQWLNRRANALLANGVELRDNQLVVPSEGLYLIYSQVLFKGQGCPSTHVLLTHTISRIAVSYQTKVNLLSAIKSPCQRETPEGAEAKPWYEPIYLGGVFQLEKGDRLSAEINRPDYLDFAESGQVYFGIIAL

Usually AC50 stands for the concentration at which the activity in the assay is half-maximal. As for `CCC[n+]1c(C)sc2c3c(ccc21)CCCC3`, the AC50 in assay [1] was 9.87 µM (active).
A word on the IC50: it is the concentration needed to halve the response being measured. In the case of `O=C(Nc1ccc2nc3ccccc3nc2c1)c1ccc(Br)cc1`, the IC50 on SUMO-activating enzyme was 26.7 µM (active).
Consider `CCOc1ccc(NC(=O)c2ccc(NC(=O)COC(=O)Cc3ccc(OC)cc3)cc2)cc1`, for which the AC50 in the assay with Escherichia coli is 21.4 µM (active).
With `COc1ccccc1OC(=O)c1ccc(C)c(S(=O)(=O)N2CCOCC2)c1`, in the assay on Escherichia coli, the AC50 was 23.7 µM (active).
In general, CC50 refers to the concentration that lowers cell viability or growth by half. Take `OC(CNCC1CCCO1)Cn1c2ccc(Cl)cc2c2cc(Cl)ccc21` (stereo unspecified): the results for the CC50 in assay [2], in [4] and in assay [6] were 9.03 µM (active), 7.5 µM (active) and 11.2 µM (active), respectively. The results for the IC50 (in [3]; in “cells”) were > 20 µM (inactive) and 8.48 µM (active), respectively. Further, the AC50 in [5] was 3.42 µM (active).
By EC50 is commonly meant the concentration at which the effect is half-maximal. The low end stands for higher potency in that assay, the high end for lower potency in that assay. Take `Cc1cc(C(=O)NC2CCCc3c2cnn3-c2cccc(C)c2C)no1` (stereo unspecified): in the assay on Vero [7], the IC50 is 1.53 µM (active). Also, the EC50 (in [8]; in the assay with H4) was > 120 µM (not active) each time.
For the compound `CCN(Cc1ccccc1)S(=O)(=O)c1c[nH]c(C(=O)OC)c1`, the AC50 in the assay with Escherichia coli is 80.5 µM (active).
Regarding `Cc1nc(SC(C)C(=O)NCC2CCCO2)c2cc(-c3ccccc3)sc2n1` (stereo unspecified), the IC50 in the assay on Vero [7] is 5.04 µM (active). The half-maximal cytotoxic concentration (CC50) with Vero [9] was > 25 µM (active).
For `CCN(CC)C(=O)Oc1ccc2ccccc2c1Br`, the IC50 with Vero [7] is > 25 µM (active). In addition, the CC50 is 44.8 µM (active) in assay [10] and 22.7 µM (active) with Vero [9].
With `COc1ccc(C(=O)/C=C/c2cccnc2)c(OC)c1`, the IC50 with Vero [7] was > 25 µM (active). Further, in the assay on Vero [9], the CC50 was 14.9 µM (active).
For the compound `CCCCn1c(N)c(N(CCOC)C(=O)COC(=O)C(C)Oc2ccc(Cl)cc2)c(=O)[nH]c1=O` (stereo unspecified), the AC50 in the assay on Escherichia coli was 22 µM (active).
On to `CC(C)(C)C(=O)/N=C(\N)Nc1nc2ccccc2o1`, for which the IC50 in assay [11] was > 20 µM (inactive); in the assay on HEK293 it was > 20 µM (inactive); on Tumor necrosis factor, 16.5 µM (active).
With `COc1ccc(C(=O)Nc2ccc(-c3nnn(CC(=O)NCc4ccco4)n3)cc2)cc1`, the IC50 on SUMO-activating enzyme was 43.1 µM (active).
